Measured values from paper PMC11494653, “Teixobactin “Swapmers” with L Tail Stereochemistry Retain Antibiotic Activity” (The Journal of Organic Chemistry, 2024).
Positions of bridges follow the written chain, without caps; N, C: chain ends. Non-standard residues stand in square brackets, D forms with d. Residues, ends and D or L forms follow the SMILES beside them. Chains are numbered I, II in the order given. NMeF = CN[C@@H](Cc1ccccc1)C(=O)O

How the values were obtained:
Assay type in all cases: cell-based
all bacteria tested = assay: MIC broth microdilution assay, summary over all bacteria; details: concentration range tested up to 32 μg/mL
Excerpt: (§1) We determined the MIC values of these teixobactin swapmer prodrugs against the Gram-positive bacteria Bacillus subtilis, Staphylococcus epidermidis, methicillin-susceptible Staphylococcus aureus (MSSA), and methicillin-resistant Staphylococcus aureus (MRSA) in a broth microdilution assay as described previously.[9],[10] We used the antibiotic vancomycin as a positive control and the Gram-negative bacterium Escherichia coli as a negative control. The MIC values for Lys10-teixobactin 1, Lys10-teixobactin prodrug 2, Arg10-teixobactin 6, and Arg10-teixobactin prodrug 7 are shown in Table 1 for comparison with the swapmer analogues.
(§2) We performed minimum inhibitory concentration (MIC) assays as previously described.[9] A concise procedure is detailed below.
(§3) Stock solutions of teixobactin analogues were prepared gravimetrically by dissolving an appropriate amount of peptide in 20 mg/mL sterile DMSO. The stock solutions were stored at −20 °C for subsequent experiments.
Bacillus subtilis (ATCC 6051), Staphylococcus epidermidis (ATCC 14990), methicillin-susceptible Staphylococcus aureus (MSSA) (ATCC 29213), and Escherichia coli (ATCC 10798) were cultured from glycerol stocks in Mueller-Hinton broth containing 0.002% polysorbate 80 overnight in a shaking incubator at 37 °C. Methicillin-resistant Staphylococcus aureus (MRSA) (ATCC 700698) was cultured from a glycerol stock in brain hearth infusion broth containing 0.002% polysorbate 80 overnight in a shaking incubator at 37 °C. […] Briefly, we have previously determined the CFU/mL for each bacterium at OD600 = 0.075 for 200 μL of bacterial culture in a 96-well plate. The OD600 of each overnight culture was determined, and then each culture was diluted to OD600 = 0.075. […]
Aliquots of the 20 mg/mL peptide stock solutions were diluted to make a 64 μg/mL solution in Mueller-Hinton broth containing 0.002% polysorbate 80 and a 64 μg/mL solution in brain heart infusion broth containing 0.002% polysorbate 80. […] The optical density measurements were measured at 600 nm using a 96-well UV–vis plate reader (MultiSkan GO, Thermo Scientific). […]

[1] = system: Bacillus subtilis ATCC 6051; assay: microbe, parasite or virus in culture; details: ATCC 6051, 16 h
Excerpt: as §1, §2, §3
(§4) Bacillus subtilis (ATCC 6051), Staphylococcus epidermidis (ATCC 14990), methicillin-susceptible Staphylococcus aureus (MSSA) (ATCC 29213), and Escherichia coli (ATCC 10798) were cultured from glycerol stocks in Mueller-Hinton broth containing 0.002% polysorbate 80 overnight in a shaking incubator at 37 °C. Methicillin-resistant Staphylococcus aureus (MRSA) (ATCC 700698) was cultured from a glycerol stock in brain hearth infusion broth containing 0.002% polysorbate 80 overnight in a shaking incubator at 37 °C. After overnight incubation, each culture was diluted with the appropriate media (containing 0.002% polysorbate 80) to 1 × 10^6 colony-forming units (CFU)/mL as previously described.[12],[15],[16] Briefly, we have previously determined the CFU/mL for each bacterium at OD600 = 0.075 for 200 μL of bacterial culture in a 96-well plate. The OD600 of each overnight culture was determined, and then each culture was diluted to OD600 = 0.075. Cultures were further diluted to achieve 1 × 10^6 CFU/mL solutions.
(§5) Aliquots of the 20 mg/mL peptide stock solutions were diluted to make a 64 μg/mL solution in Mueller-Hinton broth containing 0.002% polysorbate 80 and a 64 μg/mL solution in brain heart infusion broth containing 0.002% polysorbate 80. The solutions were mixed by pipetting to ensure homogeneity. A 200-μL aliquot of a 64 μg/mL solution was transferred to a 96-well plate. 2-fold serial dilutions were made with media containing 0.002% polysorbate 80 across the 96-well plate to achieve a final volume of 100 μL in each well (initial concentrations ranging from 64 to 0.0625 μg/mL). A 100-μL aliquot of a 1 × 10^6 CFU/mL bacterial solution was added to each well in the series, resulting in final bacterial concentrations of 5 × 10^5 CFU/mL in each well. As 100 μL of bacteria were added to each well, the concentration of peptide was also diluted 2-fold (final concentrations ranging from 32 μg/mL to 0.03125 μg/mL). Each plate was covered with a lid and incubated at 37 °C for 16 h. The optical density measurements were measured at 600 nm using a 96-well UV–vis plate reader (MultiSkan GO, Thermo Scientific). The MIC values were taken as the lowest concentration that had no bacterial growth. MIC assays for each compound were performed in triplicate to ensure reproducibility.

[2] = system: Staphylococcus aureus (MRSA) ATCC 700698; assay: microbe, parasite or virus in culture; details: ATCC 700698, 16 h
Excerpt: as §1, §2, §3, §4, §5

[3] = system: Staphylococcus aureus (MSSA) ATCC 29213; assay: microbe, parasite or virus in culture; details: ATCC 29213, 16 h
Excerpt: as §1, §2, §3, §4, §5

[4] = system: Escherichia coli ATCC 10798; assay: microbe, parasite or virus in culture; details: ATCC 10798, 16 h
Excerpt: as §1, §2, §3, §4, §5

[5] = system: Staphylococcus epidermidis ATCC 14990; assay: microbe, parasite or virus in culture; details: ATCC 14990, 16 h
Excerpt: as §1, §2, §3, §4, §5

SMILES: CC[C@H](C)[C@H](NC(=O)[C@H](CCC(N)=O)NC(=O)[C@H](Cc1ccccc1)NC)C(=O)N[C@@H](CO)C(=O)N[C@H](C(=O)N[C@@H](CCC(N)=O)C(=O)N[C@H](C(=O)OC[C@H](N)C(=O)N[C@H]1C(=O)N[C@@H](C)C(=O)N[C@@H](CCCNC(=N)N)C(=O)N[C@@H]([C@@H](C)CC)C(=O)O[C@H]1C)[C@@H](C)CC)[C@@H](C)CC [compound 9, N-Me-Phe0,Gln1,Ile4,Gln5,[Ile6-O-Ser7],Arg10-teixobactin] (I: H-[NMeF]QISIQI / II: H-S[dT]ARI; ester I:C-II:1, II:2-II:C)
- antibiotic activity in words against all bacteria tested (all bacteria tested): completely inactive
- MIC Bacillus subtilis ATCC 6051 [1]: >32 µg/mL
- MIC Staphylococcus aureus (MRSA) ATCC 700698 [2]: >32 µg/mL
- MIC Staphylococcus aureus (MSSA) ATCC 29213 [3]: >32 µg/mL
- MIC Escherichia coli ATCC 10798 [4]: >32 µg/mL
- MIC Staphylococcus epidermidis ATCC 14990 [5]: >32 µg/mL
